Laboratory results published in patent US20250357519A1, “APPLICATIONS OF O2-INSENSITIVE FORMATE DEHYDROGENASE” (UNIVERSITY OF MARYLAND, BALTIMORE, priority 2022, published 2025).
Like-named read-outs stand apart in the source and are kept apart here.

Columns and labels:
[1] = tested on: Desulfovibrio alaskensis (Da) W-FDH1, wild-type natively-purified (W-FDH1^WT); details: pH 8.0, 37 °C, 7.5 mM BV, 35 nM enzyme; Mota (2011); cited from earlier work
[2] = biological target: T1, Desulfovibrio vulgaris Hildenborough (DvH) W-FDH1, recombinant (W-FDH1^REC), large subunit DVU0587 SEQ ID NO: 29, small subunit DVU0588 SEQ ID NO: 30 (Nitratidesulfovibrio vulgaris, UniProt Q72EJ1); details: cited from earlier work
T1 construct: mature large subunit lacks Tat signal peptide; literature data of Oliveira et al. reanalysed
T1 sequence (Q72EJ1 36-1005): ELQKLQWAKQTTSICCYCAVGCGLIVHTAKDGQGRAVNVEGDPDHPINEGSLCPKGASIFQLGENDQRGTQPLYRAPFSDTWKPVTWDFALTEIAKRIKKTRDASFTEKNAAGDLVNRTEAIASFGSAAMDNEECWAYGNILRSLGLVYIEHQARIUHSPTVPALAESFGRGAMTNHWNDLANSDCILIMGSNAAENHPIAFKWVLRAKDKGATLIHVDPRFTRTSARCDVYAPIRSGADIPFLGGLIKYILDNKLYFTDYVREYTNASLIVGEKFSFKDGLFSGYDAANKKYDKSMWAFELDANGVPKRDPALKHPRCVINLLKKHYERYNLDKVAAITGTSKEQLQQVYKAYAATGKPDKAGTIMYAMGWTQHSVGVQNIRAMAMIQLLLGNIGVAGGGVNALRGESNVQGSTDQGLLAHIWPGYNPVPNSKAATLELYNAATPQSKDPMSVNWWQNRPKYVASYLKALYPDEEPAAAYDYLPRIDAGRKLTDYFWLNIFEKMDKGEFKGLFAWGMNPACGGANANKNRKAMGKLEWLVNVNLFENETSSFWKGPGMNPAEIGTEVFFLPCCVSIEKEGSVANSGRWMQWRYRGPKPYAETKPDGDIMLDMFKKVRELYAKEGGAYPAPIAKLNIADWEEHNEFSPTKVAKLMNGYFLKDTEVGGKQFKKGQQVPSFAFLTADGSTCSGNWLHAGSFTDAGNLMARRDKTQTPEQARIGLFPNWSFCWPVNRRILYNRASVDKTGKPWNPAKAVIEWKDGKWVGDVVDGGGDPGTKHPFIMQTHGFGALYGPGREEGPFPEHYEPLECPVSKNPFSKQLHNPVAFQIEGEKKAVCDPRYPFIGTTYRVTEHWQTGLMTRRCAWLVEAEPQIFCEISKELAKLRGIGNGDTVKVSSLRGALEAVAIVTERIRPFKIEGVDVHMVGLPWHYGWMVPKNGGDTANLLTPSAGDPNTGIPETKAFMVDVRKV
T1 sequence (Q72EJ0 1-236 partner): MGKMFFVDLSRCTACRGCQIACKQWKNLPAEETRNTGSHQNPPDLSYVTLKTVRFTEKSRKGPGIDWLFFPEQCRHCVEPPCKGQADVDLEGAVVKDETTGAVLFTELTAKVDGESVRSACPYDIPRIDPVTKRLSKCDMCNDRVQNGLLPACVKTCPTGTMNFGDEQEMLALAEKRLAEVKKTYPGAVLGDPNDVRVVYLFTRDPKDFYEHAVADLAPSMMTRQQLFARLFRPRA

[3] = biological target: T2, Desulfovibrio vulgaris Hildenborough (DvH) FDH2, recombinant Strep-tag II-tagged (FDH2^Rec), large subunit DVU2482 SEQ ID NO: 31, small subunit DVU2481 SEQ ID N (Nitratidesulfovibrio vulgaris, UniProt Q728X0); assay: Benzyl viologen (BV) assay of formate oxidation
T2 sequence (Q728X0 36-1003): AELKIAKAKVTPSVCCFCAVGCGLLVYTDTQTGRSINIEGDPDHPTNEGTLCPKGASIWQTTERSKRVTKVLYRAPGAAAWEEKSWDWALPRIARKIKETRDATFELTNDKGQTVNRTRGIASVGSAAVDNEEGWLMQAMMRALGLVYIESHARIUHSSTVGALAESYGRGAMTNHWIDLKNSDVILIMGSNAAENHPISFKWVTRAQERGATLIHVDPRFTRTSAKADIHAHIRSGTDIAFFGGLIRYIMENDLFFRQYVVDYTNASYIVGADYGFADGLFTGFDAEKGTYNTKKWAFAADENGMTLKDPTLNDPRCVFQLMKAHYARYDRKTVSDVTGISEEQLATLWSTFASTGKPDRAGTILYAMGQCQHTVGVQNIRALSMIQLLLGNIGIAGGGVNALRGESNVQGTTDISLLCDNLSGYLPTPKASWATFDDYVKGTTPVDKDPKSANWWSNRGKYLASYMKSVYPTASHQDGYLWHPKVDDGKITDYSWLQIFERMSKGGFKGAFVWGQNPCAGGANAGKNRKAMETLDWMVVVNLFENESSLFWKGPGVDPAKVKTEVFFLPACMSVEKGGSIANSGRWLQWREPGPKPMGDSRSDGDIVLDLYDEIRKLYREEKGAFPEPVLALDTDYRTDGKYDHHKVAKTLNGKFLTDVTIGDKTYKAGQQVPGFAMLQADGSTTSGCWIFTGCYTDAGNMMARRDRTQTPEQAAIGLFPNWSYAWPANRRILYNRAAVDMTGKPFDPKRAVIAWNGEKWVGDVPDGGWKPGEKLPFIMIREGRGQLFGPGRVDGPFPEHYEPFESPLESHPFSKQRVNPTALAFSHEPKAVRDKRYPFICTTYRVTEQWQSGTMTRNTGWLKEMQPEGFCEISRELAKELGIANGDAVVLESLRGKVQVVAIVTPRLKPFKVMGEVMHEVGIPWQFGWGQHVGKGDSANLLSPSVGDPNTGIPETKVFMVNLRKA
T2 sequence (Q728X1 1-260 partner): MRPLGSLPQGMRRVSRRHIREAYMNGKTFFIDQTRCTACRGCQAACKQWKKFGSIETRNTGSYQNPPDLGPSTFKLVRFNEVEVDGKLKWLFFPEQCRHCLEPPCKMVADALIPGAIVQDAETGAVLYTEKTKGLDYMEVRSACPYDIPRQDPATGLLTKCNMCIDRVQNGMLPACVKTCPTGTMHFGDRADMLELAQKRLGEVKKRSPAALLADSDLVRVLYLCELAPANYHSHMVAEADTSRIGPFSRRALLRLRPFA

[4] = pH 7.6, RT, 2 mM BV, 1.4 nM enzyme, Oliveira et al (2020)

In the case of `O=CO` [formate], the Km [1] is listed as 10 µM, the kcat [1] is listed as 241 s⁻¹ and the kcat ([2]; pH 7.6, RT, 2 mM BV, 1.4 nM enzyme, Alvarez-Malmagro et al (2021)) is listed as 1144 s⁻¹. The kcat ([2]; pH 7.6, RT, 2 mM BV, 1.4 nM enzyme, Miller et al (2018)) was 1100 s⁻¹, the Km [2, 4] was 16.9 ± 2.8 µM and the kcat [2, 4] was 1310 ± 50 s⁻¹. For the same compound, the kcat ([2]; pH 7.6, RT, 2 mM BV, 1.4 nM enzyme, Szczesny et al (2019)) was 940 s⁻¹, the Km ([2]; value reported by Oliveira et al., as cited in text, BV) was 17 µM and the kcat ([3]; 2 mM BV (anaerobic), full progress curve global fit) was 47 ± 2 s⁻¹. It also gave a kcat ([3]; BV (2 mM), anaerobic, initial velocities, 3 replicates, pH 8.0, 25 °C) of 68 ± 5 s⁻¹ and a kcat ([3]; BV (20 mM), anaerobic, initial velocities, 3 replicates, pH 8.0, 25 °C) of 111 ± 16 s⁻¹.
